Source: patent US20260137687A1, “GTPase INHIBITORS AND USES THEREOF” (The Regents of The University of California, priority 2022, published 2026)

Tests used:
K-Ras(G12R) = K-Ras(G12R) (Homo sapiens, UniProt P01116, G12R); assay: Sos- or EDTA-mediated nucleotide exchange assay; assay type: biochemical; parameters: human K-Ras (G12R, aa 1-169); 6xHis tag + TEV cleavage site (N, cleaved yes); made in house; host or cells: E. coli BL21(DE3); conditions: BODIPY-GDP exchanged for unlabeled GDP; compound-bound K-Ras(G12R)
Description: This assay was performed as previously reported (38-41) with slight modifications. BODIPY-GDP-loaded K-Ras proteins were prepared freshly as follows. To a 10 μM solution of K-Ras(G12R)·GDP or K-Ras(G12R)·GDP·3 in SEC Buffer (1 mL) was added sequentially BODIPY-GDP (5 mM, 40 μL, Thermo Fisher, final concentration 200 μM) and Na-EDTA pH 8.0 (0.5 M, 5 μL, final concentration 2.5 mM). The mixture was incubated at 23° C. for 1 h, and a solution of MgCl2 (1.0 M, 20 μL, […]) was added to the reaction mixture. The protein solution was run through a PD-10 column to remove the excess nucleotide following the manufacturer's protocol. Briefly, sample (˜1.0 mL) and excess buffer (1.5 mL) were loaded onto the column (equilibrated with NucEx Buffer), and desalted protein was eluted with NucEx Buffer (3.5 mL). Desalted protein was diluted 1:1 to a concentration of roughly 1.5 μM in NucEx Buffer. 12 μL of this solution (triplicate for each condition) was added to wells of a black 384-well low-volume assay plate (Corning 4514). […] The plate was immediately placed in a TECAN Spark 20M plate reader, and fluorescence for BODIPY (excitation 488 nm, emission 520 nm) was read every 30 s over 1 h. Fluorescence intensity was normalized to values at time 0 and plotted again time. […]

[1] = test system: BaF3/G12R cells (±IL-3), TCC-Pan-2 cells, and A375 cells; assay: Cellular activity (phospho-ERK immunoblot, growth inhibition); assay type: cell-based; conditions: at concentrations below 100 μM
Description: When indicated, cells were treated with drugs at 40-60% confluency at a final DMSO concentration of 1%. At the end of treatment period, cells were placed on ice. Unless otherwise indicated, adherent cells were washed once with ice-cold PBS (1 mL), scraped with a spatula, and pelleted by centrifugation (500×g, 5 min). Suspension cells were pelleted by centrifugation (500×g, 5 min), washed with 1 mL ice-cold PBS, and pelleted again. Cells were lysed in RIPA buffer supplemented with protease and phosphatase inhibitors (cOmplete and phosSTOP, Roche) on ice for 10 min. Lysates were clarified by high-speed centrifugation (19,000×g, 10 min). Concentrations of lysates were determined with protein BCA assay (Thermo Fisher) and adjusted to 2 mg/mL with additional RIPA buffer (or Co-IP Lysis Buffer). Samples were mixed with 5×SDS Loading Dye and heated at 95° C. for 5 min.
Cells were seeded into 96-well white flat bottom plates (1,000 cells/well) (Corning) and incubated overnight. Cells were treated with the indicated compounds in a nine-point threefold dilution series (100 μL final volume) and incubated for 72 h. Cell viability was assessed using a commercial CellTiter-Glo (CTG) luminescence-based assay (Promega). […] Plates were placed on an orbital shaker for 30 min before recording luminescence using a Spark 20M (Tecan) plate reader.

Question: How did the Sos-mediated nucleotide exchange (K-Ras(G12R)) turn out when `CC(=O)C(O)(O)C(=O)N1[C@@H]2CC[C@H]1CN(c1nc(OCC34CCCN3CCC4)nc3c(F)c(-c4cccc5cccc(Cl)c45)ncc13)C2` [compound 3, 1-((1R,5S)-3-(7-(8-chloronaphthalen-1-yl)-8-fluoro-2-((tetrahydro-1H-pyrrolizin-7a(5H)-yl)methoxy)pyrido[4,3-d]pyrimidin-4-yl)-3,8-diazabicyclo[3.2.1]octan-8-yl)-2,2-dihydroxybutane-1,3-dione] was run?
Answer: inhibited

Question: What about the “rate of EDTA-mediated nucleotide exchange” value (K-Ras(G12R)) of the same compound?
Answer: significantly reduced

Question: And the cellular activity [1]?
Answer: did not show cellular activity
